These results are taken from article PMC9977398, “Next-generation membrane-active glycopeptide antibiotics that also inhibit bacterial cell division” (Chemical Science, 2023).

The subject of data set [1] is VRSA. As to the kind of experiment: MIC against VRSA (strain not specified / strains taken together). It is filed as cell-based, S. aureus. The note with it: ratio of MICs. The method, then:
The increase in the carbon content of substituted moieties from six (1) to seven (2 and 3) to ten (5) to twelve (4), increased activity.
VanQAmC14 (10): Yield 65%; HPLC purity 96%; 1H-NMR (400 MHz, DMSO-d6) δ/ppm:
Test compound was assayed in a micro -dilution broth format as per the CLSI guideline. The bacterial freeze dried stock samples were stored at -80 °C. About 5 μL of these stocks were added to 3 mL of the respective broth and the culture was grown for 6 h at 37°C with prior to the experiments. This 6 h grown culture was diluted to give effective cell concentration of 10 5 CFU/mL which was then used for determining MIC. Compounds were serially diluted 2 -fold, in sterile millipore water and 50 μL of these serial dilutions were added to the wells of 96 well plate followed by the addition of about 150 μL of bacterial solution. The plates were then incubated for 18-24 h at 37 °C. The O.D. value at 600 nm was recorded using TECAN (Infinite series, M200 pro) Plate Reade r. Each concentration had triplicate values and the whole experiment was done at least twice and the MIC value was determined by taking the average of triplicate O. D. values for each concentration and plotting it against concentration. The data was then subjected to sigmoidal fitting. From the curve the MIC value was determined, as the point where the O. D. was similar to that of control having no bacteria.

A further data set relates to human erythrocytes. As to the kind of experiment: Haemolysis assay. It is filed as cell-based. The note with it: human, 1 h, pH 7.4. The method, then: To select the lead compounds, the toxicity of 1–10 was tested against human erythrocytes as their hemolytic activity (HC50). The HC50 is determined as the concentration at which 50% of the compound treated cells are lysed. […] The HC50 for compounds 6–8 was also greater than 500 μM. […] Based on the in vitro activity and hemolysis studies, VanQbiph (4) from the aryl-substituted compounds and VanQAmC10 (8) from the alkyl-chain substituted compounds were selected for further investigations. […] VanQAmC10 (8) was additionally non-toxic to RAW 264.7 cells up to 40 μM and was therefore taken forward in vivo investigation.[18]
50 μL of serially diluted compound was added into 96 well microtiter plates. Freshly drawn, heparanized human blood was centrifuged down to obtain the erythrocytes and re-suspended to 5 vol % in PBS (pH 7.4). 150 μL of the erythrocyte suspension was added to the serially diluted compounds (from 500 µM to 2 µM). One set without compound and other with 50 μL of 1 vol % solution of Triton X-100 were kept as controls. The plates were incubated at 37 °C for 1 h followed by centrifugation at 3,500 rpm for 5 min. 100 μL of the supernatant from each well were transferred into fresh microtiter plates, and A540 was measured.
% haemolysis = (A - A0)/(Atotal -A0) × 100, where A is the absorbance of the test well, A 0 the absorbance of the negative controls (without compound), and A total the absorbance of 100 % hemolysis wells (with Triton X -100), all at 540 nm. […]

In the next data set the test system is MRSA ATCC 33591. Kind of data set: Activity in blood plasma and liver homogenate. In kind it is cell-based, S. aureus. The note with it: for MIC: Staphylococcus aureus. The method, then:
Table S1: Activity of VanQAmC10 in mouse plasma and liver homogenate against MRSA […]
MIC of VanQAmC10 post incubation in (μM) […]
Activity in blood plasma and liver homogenate
To examine the susceptibility of VanQAmC10 to serum proteases, the antibacterial activities was tested in the presence of 50% of plasma and liver homogenate. Briefly, 250 μL of VanQAmC10 was added into 250 μL of fresh […] plasma and incubated at 37 °C. An aliquot of the samples 3 h and 24h post-incubation was diluted in 0.9% saline and the antibacterial activity (MIC) were determined against MRSA and VRE by following the same protocol as described above for the antibacterial assay. […]
50 μL of ∼10^6 CFU/mL bacterial inoculum (MRSA ATCC33591) was injected into the thigh. 1 h post-inoculation, animals were treated intraperitoneally twice with 12 h intervals with saline, vancomycin (12 mg kg−1), and VanQAmC10 (12 mg kg−1). 24 h post the first treatment, the animals were euthanized (using ether) and the thighs were collected aseptically. The thigh tissue was weighed and homogenized. The dilutions of the homogenate were plated onto agar plates, which were incubated overnight at about 37 °C. […]
In-vivo activity in murine burn wound infectionmodel 10-12

In data set [2] the test system is VRSA. Further details: method as in PMID 32195571. The note with it: strain not specified, Fig. 1 legend; MIC against VRSA previously reported; cited from earlier work.

Molecules are shown by their SMILES. Where two headings read alike, the source gives them in different places.

Take `CNC(CC(C)C)C(=O)NC1C(=O)NC(CC(N)=O)C(=O)NC2C(=O)NC3C(=O)NC(C(=O)NC(C(=O)NCCC[N+](C)(C)Cc4ccc(-c5ccccc5)cc4)c4cc(O)cc(O)c4-c4cc3ccc4O)C(O)c3ccc(c(Cl)c3)Oc3cc2cc(c3OC2OC(CO)C(O)C(O)C2OC2CC(C)(N)C(O)C(C)O2)Oc2ccc(cc2Cl)C1O` (stereo not shown) [VanQbiph (4)]: in the data set on VRSA [1], the “fold increase in activity as compared to vancomycin against VRSA” value was 22 to 88 fold. For the same compound, the HC50 (usually the concentration that lyses half of the red blood cells) with human erythrocytes was above 500 µM.
`CCCCCCCCCCNC(=O)C[N+](C)(C)CCCNC(=O)C1NC(=O)C2NC(=O)C(NC(=O)C3NC(=O)C(CC(N)=O)NC(=O)C(NC(=O)C(CC(C)C)NC)C(O)c4ccc(c(Cl)c4)Oc4cc3cc(c4OC3OC(CO)C(O)C(O)C3OC3CC(C)(N)C(O)C(C)O3)Oc3ccc(cc3Cl)C2O)c2ccc(O)c(c2)-c2c(O)cc(O)cc21` (stereo not shown) [VanQAmC10 (8)]: the “change of MIC in plasma and liver homogenate” value with MRSA ATCC 33591 (MRSA) is recorded as “remained unchanged”. For the same compound, the MIC (as a rule, the lowest concentration found to suppress growth) in the data set on MRSA ATCC 33591 (read-out: MIC post incubation in plasma) came to 0.4 µM; in the data set on MRSA ATCC 33591 (MRSA ATCC 33591, read-out: MIC post incubation in liver homogenate), 0.4 µM; in the data set with MRSA ATCC 33591 (MRSA ATCC 33591, read-out: MIC post incubation in media), 0.4 µM. For the same compound, in the data set with VRSA [2], the “MIC against VRSA” value was 1.6 µM.
